Reference: BindingDB's records for doi:10.1016/j.bioorg.2016.12.011 (University of Karachi, 2017)

Target: T1, Beta-glucuronidase (Bos taurus, UniProt A3KMY8)
T1 sequence (A3KMY8 whole entry): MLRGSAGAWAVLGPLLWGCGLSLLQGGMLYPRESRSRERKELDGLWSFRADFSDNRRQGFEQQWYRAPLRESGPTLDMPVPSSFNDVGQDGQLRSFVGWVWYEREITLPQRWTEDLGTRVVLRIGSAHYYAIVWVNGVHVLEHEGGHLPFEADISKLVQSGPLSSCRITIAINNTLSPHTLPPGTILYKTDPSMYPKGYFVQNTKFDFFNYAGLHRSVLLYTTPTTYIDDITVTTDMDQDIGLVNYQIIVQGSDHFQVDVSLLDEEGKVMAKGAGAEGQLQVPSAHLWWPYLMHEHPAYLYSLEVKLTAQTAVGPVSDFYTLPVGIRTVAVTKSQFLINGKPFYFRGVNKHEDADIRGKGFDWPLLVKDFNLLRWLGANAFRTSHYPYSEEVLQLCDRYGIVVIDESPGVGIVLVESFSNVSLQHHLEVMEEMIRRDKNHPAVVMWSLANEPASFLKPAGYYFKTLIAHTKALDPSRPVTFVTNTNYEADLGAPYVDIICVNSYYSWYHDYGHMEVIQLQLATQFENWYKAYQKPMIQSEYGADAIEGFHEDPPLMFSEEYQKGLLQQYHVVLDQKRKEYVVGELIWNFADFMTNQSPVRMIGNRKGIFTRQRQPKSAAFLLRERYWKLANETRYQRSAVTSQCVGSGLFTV
Assay: β-Glucuronidase Inhibition Assay
Experimental: Total volume of reaction was 250 μL. […] Reaction mixture comprised of 0.1 M acetate buffer (185 μL), test compound solution in DMSO (5 μL), enzyme solution (10 μL), was incubated for 30 min at 37 °C. […] All assays were run in triplicate.

IC50 [µM]	SMILES
11.1	Clc1ccc(-c2csc(C/C=C/c3ccc4ccc5cccc6ccc3c4c56)n2)cc1 [(E)-4-(4-Chlorophenyl)-2-(3-(pyren-1-yl)allyl)thiazole (10)]
24.4	COc1ccc(-c2csc(N/N=C/c3ccc4ccc5cccc6ccc3c4c56)n2)cc1 [(E)-4-(4-Methoxyphenyl)-2-(2-(pyren-1-ylmethylene)hydrazinyl)thiazole (3)]
5.5	NC(=S)N/N=C/c1ccc2ccc3cccc4ccc1c2c34 [(E)-2-(Pyren-1-ylmethylene)hydrazine-1-carbothioamide (2)]
40.1	Cc1ccc(-c2csc(N/N=C/c3ccc4ccc5cccc6ccc3c4c56)n2)cc1 [(E)-2-(2-(Pyren-1-ylmethylene)hydrazinyl)-4-(p-tolyl)thiazole (4)]
36.1	C(=N\Nc1nc(-c2ccc(-c3ccccc3)cc2)cs1)/c1ccc2ccc3cccc4ccc1c2c34 [(E)-4-([1,10-Biphenyl]-4-yl)-2-(2-(pyren-1-ylmethylene)hydrazinyl)thiazole (5)]
